# Patent US12064407B2 (priority 2017, dated 2024)
# Read-outs that look alike come from different tables or passages of the source.
# T1: NOGO-A (Homo sapiens, UniProt Q9NQC3)
# T1 construct: host or cells: ALS patients (clinical trials cited from the literature)
# T1 sequence (Q9NQC3 1-1192): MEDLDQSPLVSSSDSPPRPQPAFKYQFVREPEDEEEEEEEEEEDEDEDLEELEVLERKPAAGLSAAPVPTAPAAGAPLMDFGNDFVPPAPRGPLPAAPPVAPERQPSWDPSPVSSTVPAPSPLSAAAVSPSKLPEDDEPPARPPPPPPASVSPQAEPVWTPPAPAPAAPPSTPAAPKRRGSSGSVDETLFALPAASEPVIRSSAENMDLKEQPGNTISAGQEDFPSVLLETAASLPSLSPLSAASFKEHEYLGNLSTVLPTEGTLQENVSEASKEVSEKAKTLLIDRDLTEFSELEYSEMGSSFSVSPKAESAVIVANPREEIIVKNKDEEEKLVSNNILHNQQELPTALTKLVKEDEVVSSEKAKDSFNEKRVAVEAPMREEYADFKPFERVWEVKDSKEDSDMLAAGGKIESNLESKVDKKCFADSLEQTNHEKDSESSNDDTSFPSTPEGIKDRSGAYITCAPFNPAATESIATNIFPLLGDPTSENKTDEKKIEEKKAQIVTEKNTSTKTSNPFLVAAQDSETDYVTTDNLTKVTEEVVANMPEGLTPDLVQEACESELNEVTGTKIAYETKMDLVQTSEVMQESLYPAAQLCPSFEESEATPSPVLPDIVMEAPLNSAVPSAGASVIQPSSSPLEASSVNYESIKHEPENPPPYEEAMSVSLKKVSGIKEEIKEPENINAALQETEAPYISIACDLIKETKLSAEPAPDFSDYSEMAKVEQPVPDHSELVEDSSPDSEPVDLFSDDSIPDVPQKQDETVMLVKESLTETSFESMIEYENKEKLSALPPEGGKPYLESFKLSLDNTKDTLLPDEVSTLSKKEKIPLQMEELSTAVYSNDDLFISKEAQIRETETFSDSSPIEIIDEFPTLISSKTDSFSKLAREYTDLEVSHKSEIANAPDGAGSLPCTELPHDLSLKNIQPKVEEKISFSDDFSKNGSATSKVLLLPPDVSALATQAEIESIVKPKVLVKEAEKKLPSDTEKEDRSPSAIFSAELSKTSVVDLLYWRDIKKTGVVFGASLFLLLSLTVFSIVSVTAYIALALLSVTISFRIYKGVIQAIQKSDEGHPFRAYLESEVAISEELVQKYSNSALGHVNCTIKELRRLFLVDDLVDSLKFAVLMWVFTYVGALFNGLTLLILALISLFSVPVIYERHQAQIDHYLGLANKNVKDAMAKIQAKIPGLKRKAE
# B1: ERVK SU: ERVK envelope surface unit protein devoid of the CTXLP domain (SEQ ID NO: 3) (protein)
# chain: MNPSEMQRKAPPRRRRHRNRAPLTHKMNKMVTSEEQMKLPSTKKAEPPTWAQLKKLTQLATKYLENTKVTQTPESMLLAALMIVSMVVSLPMPAGAAAANYTYWAYVPFPPLIRAVTWMDNPIEIYVNDSVWVPGPTDDCCPAKPEEEGMMINISIGYRYPPICLGRAPGCLMPAVQNWLVEVPTVSPISRFTYHMVSGMSLRPRVNYLQDFSYQRSLKFRPKGKPCPKEIPKESKNTEVLVWEECVANSAVILQNNEFGTLIDWAPRGQFYHNCSGQTQSCPSAQVSPAVDSDLTESLDKHKHKKLQSFYPWEWGEKGISTARPKIISPVSGPEHPELWRLTVASHHIRIWSGNQTLETRDRKPFYTIDLNSSLTVPLQSCVKPPYMLVVGNIVIKPDSQTITCENCRLLTCIDSTFNWQHRILLVRAREGVWIPVSMDRPWEASPSVHILTEVLKGVLNRSKR
# modifications: Endogenous retrovirus K (from homo sapiens)
# B2: LIGHT: lymphotoxin-like inducible member of the TNF superfamily protein, pro-inflammatory cytokine (protein, UniProt O43557 83-240, looked up)
# Tumor necrosis factor ligand …: LIQERRSHEVNPAAHLTGANSSLTGSGGPLLWETQLGLAFLRGLSYHDGALVVTKAGYYYIYSKVQLGGVGCPLGLASTITHGLYKRTPRYPEELELLVSQQSPCGRATSSSRVWWDSSFLGGVVHLEAGEKVVVRVLDERLVRLRDGTRSYFGAFMV
# B3: Ozanezumab: human anti-Nogo-A antibody from GlaxoSmithKline (antibody, chains of the INN, looked up, V domains shown)
# VH: QVQLVQSGAEVKKPGASVKVSCKASGYTFTSYWMHWVRQAPGQGLEWIGNINPSNGGTNYNEKFKSKATMTRDTSTSTAYMELSSLRSEDTAVYYCELMQGYWGQGTLVTVSS
# VL: DIVMTQSPLSNPVTLGQPVSISCRSSKSLLYKDGKTYLNWFLQRPGQSPQLLIYLMSTRASGVPDRFSGGGSGTDFTLKISRVEAEDVGVYYCQQLVEYPLTFGQGTKLEIK
# Key:
# CaV1.2 CCAT = conditions: 2.5 mM EGTA; 65 mM KCI; 100 μM glutamate; cited from earlier work
# CTXLP = experiment: Endogenous CTXLP in SVGA astrocytes treated with gambogic acid; format: cell-based, human; conditions: SVGA cells, gambogic acid 0.25 and 0.5 μM
# Method: FIG. 57 depicts that endogenous levels of CTXLP in human astrocytes can be depleted in the presence of gambogic acid. Human astrocytic cell line SVGA were treated with increasing doses of gambogic acid in the low micromolar range (0.25 and 0.5 μM).
# NOGO-A [1] = conditions: 24 hours, GA 0.1, 0.25, 1 and 2.5 μM
# Method: The ERVK-expressing NCCIT teratocarcinoma cell line was grown in a monolayer in RMPI 1640 media supplemented with FetalGro. Cells were treated for 24 hours with increasing doses of gambogic acid (GA, 0.1, 0.25, 1 and 2.5 μM). Cells were collected, protein extracted, and western blot performed to measure the expression of ERVK CTXLP, CaV2.2 C-terminal calcium channel-associated transcriptional regulator (CaV2.2 CCAT) and NOGO-A, as compared to β-actin loading control.
# ERVK CTXLP [2] = conditions: ReNcell CX neurospheres, 24 hours, 1 ng/ml TNFα; for TNFα-induced CTXLP expression in human neurospheres: 0.5 μM GA
# Method: (§1) The ReNcell CX neuroprogenitor cell line was grown in suspension to produce human neurospheres (approximately 0.5 mm diameter). Neurospheres were treated for 24 hours in neurobasal media alone, or with or without 1 ng/ml TNFα and/or 0.5 μM gambogic acid (GA). Cells were collected, protein extracted, and western blot performed to measure the expression of soluble (standard lysis) and insoluble (RIPA lysis) proteins for ERVK CTXLP, CaV2.2 C-terminal calcium channel-associated transcriptional regulator (CaV2.2 CCAT) and NOGO-A, as compared to β-actin loading control.
# NOGO-A [3] = conditions: ReNcell CX neurospheres, 24 hours, 1 ng/ml TNFα; for TNFα-induced NOGO-A expression in human neurospheres: 0.5 μM GA
# Method: as §1
# [4] = tested on: interferon response elements (ISREs) within the ERVK promoter (5′ LTR); format: binding, human
# ERVK CTXLP [5] = conditions: ReNcell-derived neurons, 24 hours, n=1
# Method: ReNcell-derived neurons were treated with increasing doses of pro-inflammatory cytokines TNFα or LIGHT for 24 hours.
# [6] = tested on: CaV2.2 calcium channel-associated transcription regulator (CCAT); format: cell-based, human
# NF-κB p65 [7] = format: cell-based
# IRF7 = format: cell-based
# NF-κB p65 [8] = format: cell-based; remark: listed apart in the source
# [9] = tested on: NF-κB p65 and p50 proteins; format: cell-based, human
# NOGO-A [10] = target: T1, NOGO-A; conditions: patients with ALS, intravenous infusions; cited from earlier work
molecule,measurement,setting,value
O=C(O)CN(CCOCCOCCN(CC(=O)O)CC(=O)O)CC(=O)O [EGTA],CaV1.2 CCAT nuclear localization / nuclear CCAT levels in neurons,CaV1.2 CCAT,promote
"CC(C)=CCC[C@]1(C)C=Cc2c(O)c3c(c(CC=C(C)C)c2O1)O[C@]12C(=C[C@@H]4C[C@H]1C(C)(C)O[C@@]2(C/C=C(/C)C(=O)O)C4=O)C3=O [Gambogic acid, gambogic acid]",endogenous levels of CTXLP in human astrocytes,CTXLP,depleted
same,NOGO-A expression in NCCIT cells,NOGO-A [1],potent inhibitor of Nogo-A
same,NOGO-A expression in NCCIT cells,NOGO-A [1]; listed as GA,dose-dependently reduces
same,TNFα-induced CTXLP expression in human neurospheres,ERVK CTXLP [2],blocks
same,TNFα-induced CTXLP expression in human neurospheres,ERVK CTXLP [2]; listed as gambogic acid,reduce inducible CTXLP expression
same,TNFα-induced NOGO-A expression in human neurospheres,NOGO-A [3]; listed as GA,blocked
same,TNFα-induced NOGO-A expression in human neurospheres,NOGO-A [3]; listed as gambogic acid,ameliorate
[Cl-].[K+] [KCI],CaV1.2 CCAT nuclear localization / nuclear CCAT levels in neurons,CaV1.2 CCAT,decreased nuclear CCAT levels
[Ca+2].[Cl-].[Cl-] [calcium chloride],caspase-3 expression in CTXLP-treated SVGA cells in the presence of excess calcium,SVGA cells,blocked
N[C@@H](CCC(=O)O)C(=O)O [glutamate],CaV1.2 CCAT nuclear localization / nuclear CCAT levels in neurons,CaV1.2 CCAT,decreased nuclear CCAT levels
TNFα,CTXLP chromatin binding on cytokine stimulation,[4],Notable increase
same,CTXLP expression in neurospheres on TNFα,ERVK CTXLP [2],enhances
same,NOGO-A expression in neurospheres on TNFα,NOGO-A [3],enhances
same,cytokine dose giving optimal enhancement of CTXLP expression (90 kDa form),ERVK CTXLP [5],1 ng/mL
B1,CaV2.2 CCAT (75 kDa) expression in SVGA cells,[6],not
same,mRNA expression of NF-κB p65,NF-κB p65 [7],marked increase
same,mRNA expression of IRF7,IRF7,neither protein was able to trigger an upregulation
same,NF-κB p65 protein expression,NF-κB p65 [8],unable
same,NF-κB p65 and p50 protein expression,[9],not
same,continued replication / cell density at later time points,SVGA cells,able to continue to replicate
B2,cytokine dose giving optimal enhancement of CTXLP expression (90 kDa form),ERVK CTXLP [5],10 ng/mL
B3,outcome of Phase II clinical ALS trials,NOGO-A [10],negative results
